Assay [1] addresses T1, TRPM2 interaction with GluN2b (Rattus norvegicus, UniProt Q00960).
T1 construct: TRPM2 plasmid a gift 17928; 17924; 17925; host or cells: HEK293T
The assay can be described thus: Co-IP of TRPM2 with GluN2b in co-transfected HEK293T cells. The note with it: 10 μM peptide overnight; IP anti-GluN2b, WB anti-Flag. Type of assay: cell-based, human. As to the method:
FIGS. 5A and 5B show the effects of TAT-EE3 on interaction of TRPM2 and NMDARs. Co-IP tests of NMDARs with WT or EE3 domain mutants of TRPM2 (Flag-tagged) in co-transfected HEK293T cells. WT TRPM2 groups were treated with 10 μM TAT-SC or TAT-EE3 overnight. Lysates were IP's with anti-GluN2a (FIG. 5A) or anti-GluN2b (FIG. 5B), and probed by WBs with anti-Flag. IgG was used as control for IP. Similar to the mutants TRPM2-ΔEE3 and TRPM2-EQE, TAT-EE3 disrupted TRPM2 interaction with GluN2a and GluN2b.
were ordered from GenScript Biotech, and dissolved in PBS to make a stock concentration at 10 mM. HEK-293T cells or isolated neurons were treated with TAT-SC or TAT-EE3 at a concentration of 10 μM for at least 8 h prior to use. Mice were injected with TAT-SC or TAT-EE3 intraperitoneally (ip) at a dose of 100 nmol/kg. […]
NP-40 lysis buffer ([…], 150 mM NaCl, 1 mM EDTA, 50 mM Tris, pH=8.0) containing proteinase inhibitors (Sigma-Aldrich, 539131-10VL) and phosphatase inhibitors (Thermal Fisher Scientific, 78428) was used to lyse both cultured cells and frozen brain tissue. […] Protein concentration was measured using Pierce™ Rapid Gold BCA Protein Assay Kit (Thermal Fisher Scientific, A53225). […] Then samples were ready for western blotting analysis.

The test system of assay [2] is ERK and CREB activities (pERK1/2, pCREB). Nature of the assay: ERK and CREB activities in brains of mice subjected to MCAO (WB). As to conditions: WT mice; peptide ip 15 min before MCAO or sham. Type of assay: in vivo, mouse. As to the method:
FIGS. 7I-7K show the effects of TAT-EE3 and Trpm2 deletion on ERK and CREB activities in mice subjected to MCAO. […] TAT-EE3 or TAT-SC was ip administrated to WT mice 15 min before MCAO or sham surgeries. FIGS. 7J and 7K show the quantification of pERK1/2 and pCREB expressed in the brains after MCAO or sham procedure (***, p<0.001; ANOVA, Bonferroni's test; mean±SEM, n=4/group).
Eight-to nine-week-old male mice (˜25 g) were subjected to right middle cerebral artery occlusion (MCAO) for 120 min followed by 24 hours of reperfusion. The genotype information was blinded to the surgeon who conduct the surgeries. […] Mouse body temperature was monitored by a rectal temperature probe and maintained at ˜ 37° C. with an automatic temperature-regulating heating pad connected to animal temperature controller (TCA T-2DF, Physitemp). Cerebral blood flow was monitored after occlusion as well as after reperfusion. […] Successful occlusion was confirmed by 85% reduction of cerebral blood flow monitored by Laser Doppler Flowmetry (LDF) with laser Doppler blood FlowMeter (Moor-VMS-LDF1, Moor Instrument, Dever, UK). […]
NP-40/Triton lysis buffer ([…], 1% Triton™ X-100, 150 mM NaCl, 1 mM EDTA, 50 mM Tris, pH=8.0) containing proteinase inhibitors and phosphatase inhibitors was used to lyse both cultured cells and frozen brain tissue. […] Protein concentration was measured using Pierce™ Rapid Gold BCA Protein Assay Kit. […]

T1 sequence (Q00960 27-1482, other chains not shown): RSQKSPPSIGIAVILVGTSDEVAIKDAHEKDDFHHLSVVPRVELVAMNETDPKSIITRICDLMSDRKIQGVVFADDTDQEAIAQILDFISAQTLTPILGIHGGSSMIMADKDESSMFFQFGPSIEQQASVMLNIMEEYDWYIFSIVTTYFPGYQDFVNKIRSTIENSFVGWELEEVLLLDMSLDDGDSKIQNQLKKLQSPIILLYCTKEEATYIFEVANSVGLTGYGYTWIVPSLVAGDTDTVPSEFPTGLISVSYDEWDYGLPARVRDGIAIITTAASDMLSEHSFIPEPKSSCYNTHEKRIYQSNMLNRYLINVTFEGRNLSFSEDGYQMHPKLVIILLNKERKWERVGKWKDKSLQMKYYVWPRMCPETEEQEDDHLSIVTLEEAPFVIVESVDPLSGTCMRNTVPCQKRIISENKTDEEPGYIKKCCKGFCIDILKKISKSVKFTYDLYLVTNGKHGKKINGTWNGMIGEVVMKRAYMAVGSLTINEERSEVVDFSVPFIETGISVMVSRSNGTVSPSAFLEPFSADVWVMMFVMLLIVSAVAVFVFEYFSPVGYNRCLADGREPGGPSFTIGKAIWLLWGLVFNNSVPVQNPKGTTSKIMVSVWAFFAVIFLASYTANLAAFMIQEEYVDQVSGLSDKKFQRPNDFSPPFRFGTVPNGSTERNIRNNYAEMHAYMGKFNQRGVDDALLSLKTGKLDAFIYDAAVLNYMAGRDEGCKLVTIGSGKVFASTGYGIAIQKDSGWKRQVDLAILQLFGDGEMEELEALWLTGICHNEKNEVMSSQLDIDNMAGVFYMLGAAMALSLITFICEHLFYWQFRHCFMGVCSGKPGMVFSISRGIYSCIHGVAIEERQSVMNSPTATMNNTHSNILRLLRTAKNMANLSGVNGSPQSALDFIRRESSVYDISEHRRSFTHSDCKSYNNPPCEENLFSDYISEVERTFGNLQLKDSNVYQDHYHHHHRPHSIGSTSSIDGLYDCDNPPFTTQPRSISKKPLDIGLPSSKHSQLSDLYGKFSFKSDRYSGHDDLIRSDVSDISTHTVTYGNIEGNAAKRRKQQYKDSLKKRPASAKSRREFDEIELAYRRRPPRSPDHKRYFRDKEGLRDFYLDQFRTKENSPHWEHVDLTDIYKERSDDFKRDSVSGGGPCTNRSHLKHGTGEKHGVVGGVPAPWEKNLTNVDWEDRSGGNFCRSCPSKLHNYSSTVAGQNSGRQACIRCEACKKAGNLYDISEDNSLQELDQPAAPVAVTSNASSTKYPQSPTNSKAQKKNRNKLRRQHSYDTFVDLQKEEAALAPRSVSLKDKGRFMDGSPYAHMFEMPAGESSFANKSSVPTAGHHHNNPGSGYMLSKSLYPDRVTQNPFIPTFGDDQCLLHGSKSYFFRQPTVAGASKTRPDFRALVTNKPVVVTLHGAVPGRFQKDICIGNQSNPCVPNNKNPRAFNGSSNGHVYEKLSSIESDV

For the substance “TAT-EE3: membrane permeable disrupting peptide, sequence YGRKKRRQRRREEDTDSSEEMLALAEE (SEQ ID NO: 4)”, the “interaction of TRPM2 with GluN2b (co-IP)” value in assay [1] is reported as “completely disrupted”. In assay [2], the “pCREB level in MCAO brains vs sham control brains” value is “no reduction” and the “pERK1/2 level in MCAO brains vs sham control brains” value is reported as “no reduction”.
